Test results taken from PubChem BioAssay AID330 (DTP/NCI, 2004).
Values joined by “and” are separate entries in the source; they are usually repeats but may differ in a detail not shown here. Equal values may be shown once. Inconclusive results and toxic doses are left out. Rule for the calls: active = survival T/C of 150% or more; inactive = T/C below 125% in these data.

Test system: P388 leukemia ip, CD2F1 mice, survival T/C
Test: NCI In Vivo Anticancer Drug Screen. Data for tumor model P388 Leukemia (intraperitoneal) in CD2F1 (CDF1) mice
Conditions: endpoint: median survival time, higher = longer survival
Summary of the method: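 Mice carrying the transplanted tumor received test compound or vehicle. Survival was recorded in each group, and the value is the treated-group measurement divided by that of the vehicle-treated control group.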

[1] = dose: 200.0 mg/kg/injection, schedule: Q04DX003 (ip), vehicle: saline with Tween-80
[2] = dose: 25.0 mg/kg/injection, schedule: Q01DX009 (ip), vehicle: saline with Tween-80
[3] = dose: 60.0 mg/kg/injection, schedule: Q01DX005 (ip), vehicle: saline with Tween-80
[4] = dose: 120.0 mg/kg/injection, schedule: Q01DX005 (ip), vehicle: saline with Tween-80
[5] = dose: 240.0 mg/kg/injection, schedule: Q01DX005 (ip), vehicle: saline with Tween-80
[6] = dose: 50.0 mg/kg/injection, schedule: Q01DX005 (ip), vehicle: Klucel (hydroxypropylcellulose) (HPC)
[7] = dose: 100.0 mg/kg/injection, schedule: Q01DX005 (ip), vehicle: Klucel (hydroxypropylcellulose) (HPC)
[8] = dose: 100.0 mg/kg/injection, schedule: Q04DX003 (ip), vehicle: saline with Tween-80
[9] = dose: 400.0 mg/kg/injection, schedule: Q04DX003 (ip), vehicle: saline with Tween-80
[10] = dose: 50.0 mg/kg/injection, schedule: Q01DX009 (ip), vehicle: saline with Tween-80
[11] = dose: 60.0 mg/kg/injection, schedule: Q01DX005 (ip), vehicle: Klucel (hydroxypropylcellulose) (HPC)
[12] = dose: 120.0 mg/kg/injection, schedule: Q01DX005 (ip), vehicle: Klucel (hydroxypropylcellulose) (HPC)
[13] = dose: 240.0 mg/kg/injection, schedule: Q01DX005 (ip), vehicle: Klucel (hydroxypropylcellulose) (HPC)
[14] = dose: 100.0 mg/kg/injection, schedule: Q01DX009 (ip), vehicle: saline with Tween-80
[15] = dose: 200.0 mg/kg/injection, schedule: Q01DX009 (ip), vehicle: saline with Tween-80

Measured: T/C

C[N+](C)(Cn1nc(Cl)c2cc([N+](=O)[O-])ccc21)Cn1nc(Cl)c2cc([N+](=O)[O-])ccc21
inactive: dose: 50.0 mg/kg/injection, schedule: Q04DX003 (ip), vehicle: saline with Tween-80 93 % of control | [1] 88 % of control

CCCCCCCCCCCCCCCC(=O)N1CCN(C)CC1
inactive: [2] 115 % of control

Cc1ccc(/C=N/NC(=O)CNC(=O)c2ccccc2)cc1
inactive: [3] 97 % of control | [4] 92 % of control | [5] 97 % of control

C=CC[P+](CC[P+](CC=C)(c1ccccc1)c1ccccc1)(c1ccccc1)c1ccccc1
inactive: dose: 6.25 mg/kg/injection, schedule: Q04DX002 (ip), vehicle: saline 102 % of control | dose: 12.5 mg/kg/injection, schedule: Q04DX002 (ip), vehicle: saline 96 % of control

COc1ccc(CCNC(=O)C2CC3CCCCN3C2C)cc1OC (configuration not stated)
inactive: [3] 99 % of control | [4] 95 % of control | [5] 94 % of control

C=C(C)C(=NC1CCCCC1)NC(C)(C)C
inactive: dose: 25.0 mg/kg/injection, schedule: Q01DX005 (ip), vehicle: Klucel (hydroxypropylcellulose) (HPC) 99 % of control | [6] 100 % of control | [7] 99 % of control and 102 % of control

c1ccc(C2=N[C@@H](N3CCCCC3)[C@H](N3CCCCC3)N2c2ccccc2)cc1
inactive: [6] 105 % of control | [7] 100 % of control | dose: 200.0 mg/kg/injection, schedule: Q01DX005 (ip), vehicle: Klucel (hydroxypropylcellulose) (HPC) 98 % of control

CCCCCCC(O)CCCCCCCCCCC(=O)O (configuration not stated)
inactive: [8] 109 % of control | [1] 100 % of control | [9] 104 % of control

COC(=O)C1CO[C@@H](C(C)(C)C)N1C=O (some centres not stated)
inactive: dose: 60.0 mg/kg/injection, schedule: Q01DX005 (ip), vehicle: saline 104 % of control | dose: 120.0 mg/kg/injection, schedule: Q01DX005 (ip), vehicle: saline 110 % of control | dose: 240.0 mg/kg/injection, schedule: Q01DX005 (ip), vehicle: saline 101 % of control

Cc1c2oc3c(C)ccc(C(=O)NCCCN4CCN(C)CC4)c3nc-2c(C(=O)NCCCN2CCN(C)CC2)c(N)c1=O
inactive: dose: 6.25 mg/kg/injection, schedule: Q04DX003 (ip), vehicle: saline with Tween-80 106 % of control | dose: 12.5 mg/kg/injection, schedule: Q04DX003 (ip), vehicle: saline with Tween-80 104 % of control | dose: 25.0 mg/kg/injection, schedule: Q04DX003 (ip), vehicle: saline with Tween-80 114 % of control and 117 % of control | [8] 123 % of control

O=C1CCC(=O)N1CO
inactive: dose: 37.5 mg/kg/injection, schedule: Q01DX009 (ip), vehicle: saline with Tween-80 107 % of control | dose: 75.0 mg/kg/injection, schedule: Q01DX009 (ip), vehicle: saline with Tween-80 120 % of control

COC(=O)Cn1/c(=N\N=C\c2ccc(C)cc2)sc2ccccc21
inactive: dose: 100.0 mg/kg/injection, schedule: Q01DX001 (ip), vehicle: saline with Tween-80 91 % of control | dose: 200.0 mg/kg/injection, schedule: Q01DX001 (ip), vehicle: saline with Tween-80 91 % of control | dose: 400.0 mg/kg/injection, schedule: Q01DX001 (ip), vehicle: saline with Tween-80 89 % of control

CC1(O)C(c2ccccc2)=C(c2ccccc2)C2(c3ccccc3)Oc3c(Cl)c(Cl)c(Cl)c(Cl)c3OC12c1ccccc1 (configuration not stated)
inactive: dose: 12.5 mg/kg/injection, schedule: Q01DX009 (ip), vehicle: saline with Tween-80 94 % of control | [2] 94 % of control | [10] 90 % of control and 93 % of control

O=C(Nc1c(Cl)cccc1Cl)OCCOc1ccc(Cl)cc1Cl
inactive: [11] 99 % of control | [12] 96 % of control | [13] 99 % of control

COC(=O)NN(C(=O)OC)C12CCCCC1N(C(=O)OC)N(C(=O)OC)c1c2ccc2cc(OC)ccc12 (configuration not stated)
inactive: dose: 100.0 mg/kg/injection, schedule: Q01DX001 (ip), vehicle: Klucel (hydroxypropylcellulose) (HPC) 96 % of control | dose: 200.0 mg/kg/injection, schedule: Q01DX001 (ip), vehicle: Klucel (hydroxypropylcellulose) (HPC) 92 % of control | dose: 400.0 mg/kg/injection, schedule: Q01DX001 (ip), vehicle: Klucel (hydroxypropylcellulose) (HPC) 91 % of control

CCCc1c(C(=O)OCCCN(CC)CC)c(C(=O)OCCCN(CC)CC)c(CCC)n1-c1ccccc1
inactive: dose: 25.0 mg/kg/injection, schedule: Q01DX005 (ip), vehicle: saline 105 % of control

Cc1ccc(-n2c(=O)nc([O-])[n+]3ccccc23)cc1
inactive: [11] 99 % of control | [12] 98 % of control | [13] 96 % of control

O=C(Cc1ccccc1)Nc1ncc([N+](=O)[O-])s1
inactive: dose: 50.0 mg/kg/injection, schedule: Q01DX009 (ip), vehicle: Klucel (hydroxypropylcellulose) (HPC) 116 % of control | dose: 100.0 mg/kg/injection, schedule: Q01DX009 (ip), vehicle: Klucel (hydroxypropylcellulose) (HPC) 106 % of control | dose: 200.0 mg/kg/injection, schedule: Q01DX009 (ip), vehicle: Klucel (hydroxypropylcellulose) (HPC) 100 % of control

N#CC(C(=O)C(=O)Nc1cccc(C(F)(F)F)c1)c1c(Cl)cccc1Cl (configuration not stated)
inactive: dose: 50.0 mg/kg/injection, schedule: Q01DX005 (ip), vehicle: saline with Tween-80 98 % of control | dose: 100.0 mg/kg/injection, schedule: Q01DX005 (ip), vehicle: saline with Tween-80 100 % of control | dose: 200.0 mg/kg/injection, schedule: Q01DX005 (ip), vehicle: saline with Tween-80 100 % of control

CN(C)c1ccc(CN2CCCN(Cc3ccc(N(C)C)cc3)C2c2ccncc2)cc1
inactive: [14] 100 % of control | [15] 100 % of control | dose: 400.0 mg/kg/injection, schedule: Q01DX009 (ip), vehicle: saline with Tween-80 100 % of control

CC12CCC(=O)C=C1C=CC1C2CCC2(C)C1CCC21CCC(=O)O1 (configuration not stated)
inactive: [10] 94 % of control | [14] 91 % of control | [15] 97 % of control

COC1=CC2C3Cc4c(-c5cc(OC)c(O)c6c5CC5C7C=C(OC)C(=O)CC67CCN5C)cc(OC)c(O)c4C2(CCN3C)CC1=O (configuration not stated)
inactive: [10] 97 % of control | dose: 50.0 mg/kg/injection, schedule: Q01DX009 (ip), vehicle: saline 105 % of control | [14] 102 % of control | dose: 100.0 mg/kg/injection, schedule: Q01DX009 (ip), vehicle: saline 94 % of control | [8] 104 % of control | dose: 100.0 mg/kg/injection, schedule: Q04DX003 (ip), vehicle: saline 95 % of control | dose: 200.0 mg/kg/injection, schedule: Q01DX009 (ip), vehicle: saline 105 % of control | [1] 106 % of control | dose: 200.0 mg/kg/injection, schedule: Q04DX003 (ip), vehicle: saline 93 % of control | [9] 95 % of control | dose: 400.0 mg/kg/injection, schedule: Q04DX003 (ip), vehicle: saline 96 % of control

CC1(C)N=C(N)N=C(N)N1c1cccc(CCCCc2ccccc2)c1
inactive: dose: 0.75 mg/kg/injection, schedule: Q01DX009 (ip), vehicle: saline sonified 109 % of control | dose: 1.5 mg/kg/injection, schedule: Q01DX009 (ip), vehicle: saline sonified 113 % of control | dose: 3.0 mg/kg/injection, schedule: Q01DX009 (ip), vehicle: saline sonified 118 % of control | dose: 50.0 mg/kg/injection, schedule: Q04DX003 (ip), vehicle: saline sonified 86 % of control
